# pIC50: −log10 of the molar value.
# Columns and labels:
# [1] = test system: T1, Aβ 25–35 pre-formed fibrils; experiment: Thioflavin T assay, Phase II: disaggregation of pre-formed mature fibrils; assay type: biochemical; settings: pre-formed Aβ 25–35 fibrils with ACTPG 250 μg/ml or galantamine 50 μM
# T1 construct: Aβ 25–35 peptide was purchased from GenScript USA Inc; purchased GenScript USA Inc
# Experimental: According to the method of Ramesh et al the anti-aggregation and disaggregation property of P. gymnospora was evaluated in two different phases. In phase I, the inhibition of aggregate formation was assessed by using oligomers. Consequently, in Phase II the disaggregation of the pre-formed fibrils were determined. Freshly prepared Aβ 25–35 (100 μM) monomer was incubated in Tris-HCl buffer pH 7.4 at 37°C for 20 h. However, after 20 h, an increase in fluorescence intensity was observed which represents the formation of oligomers. The acetone extract of P. gymnospora (ACTPG) (250 and 500 μg/ml) was added to the oligomers and subjected to incubation at 48 h for dose fixation. […] In phase I, the freshly prepared Aβ 25–35 (100 μM) was incubated with ACTPG (250 μg/ml), and the aggregation pattern was evaluated by ThT assay with the aliquots taken from the incubation mixture at 20 h and 48 h respectively. […] After that, ACTPG (250 μg/ml) was co-incubated with the pre-formed fibrils, and the disaggregation pattern was evaluated by taking the aliquots of incubation mixture at 96 h and 9 days using Thioflavin T assay using the standard Galantamine (50μM) as a positive control. […]
# Thioflavin T-induced fluorescence changes were measured to quantify amyloid fibril formation by spectrofluorimeter (Microplate Analyzer) as described by. […]
# [2] = molecular target: T2, AChE from Electric eel (Electrophorus electricus, UniProt O42275); experiment: AChE inhibitory assay (modified Ellman 96-well microplate); assay type: biochemical
# T2 construct: AChE from Electric eel (Type-VI-S, EC 3.1.1.7, Sigma); purchased Sigma Type-VI-S
# T2 sequence (O42275 24-633): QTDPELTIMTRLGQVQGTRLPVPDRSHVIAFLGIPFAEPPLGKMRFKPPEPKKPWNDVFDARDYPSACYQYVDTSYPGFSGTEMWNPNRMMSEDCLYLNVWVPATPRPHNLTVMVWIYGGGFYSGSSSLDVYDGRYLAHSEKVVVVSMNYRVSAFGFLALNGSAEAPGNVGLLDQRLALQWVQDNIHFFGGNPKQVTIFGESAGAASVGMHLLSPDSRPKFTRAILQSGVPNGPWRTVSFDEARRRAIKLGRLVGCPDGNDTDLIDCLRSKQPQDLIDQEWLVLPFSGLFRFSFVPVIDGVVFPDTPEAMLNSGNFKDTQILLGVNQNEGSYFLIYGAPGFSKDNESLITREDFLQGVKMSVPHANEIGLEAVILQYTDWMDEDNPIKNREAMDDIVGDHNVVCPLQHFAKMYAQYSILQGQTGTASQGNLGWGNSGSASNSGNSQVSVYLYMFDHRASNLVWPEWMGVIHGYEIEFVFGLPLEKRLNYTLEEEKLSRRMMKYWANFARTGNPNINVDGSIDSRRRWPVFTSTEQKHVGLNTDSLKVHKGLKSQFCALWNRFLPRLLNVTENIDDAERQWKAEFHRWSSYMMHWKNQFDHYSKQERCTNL
# Experimental: (§1) ChE inhibitory activities were measured using a modified 96-well microplate assay developed by. […] After incubation, 125 μl of 3 mM DTNB was added and the total volume was made up to 300 μl with Tris- HCl buffer (pH 8.0/7.4). Enzyme activity was initiated by the addition of 50 μl of 15 mm ATCI/BTCI. […] AChE activity was expressed as U/mg of protein (1U = μmol of thiocholine iodide formed/min/mg protein). […] Percentage of inhibition of AChE/BuChE was determined by comparison of rates of reaction of samples relative to the blank (Tris-HCl buffer) using the formula, where SA is the specific activity.
# (§2) % of inhibition = [(SA of control − SA of test sample) / SA of control]*100
# [3] = molecular target: T3, BuChE from horse serum (Equus caballus, UniProt P81908); experiment: biochemical
# T3 construct: BuChE from horse serum (EC 3.1.1.8, MP Biomedicals); purchased MP Biomedicals; host or cells: horse serum
# T3 sequence (P81908 whole entry): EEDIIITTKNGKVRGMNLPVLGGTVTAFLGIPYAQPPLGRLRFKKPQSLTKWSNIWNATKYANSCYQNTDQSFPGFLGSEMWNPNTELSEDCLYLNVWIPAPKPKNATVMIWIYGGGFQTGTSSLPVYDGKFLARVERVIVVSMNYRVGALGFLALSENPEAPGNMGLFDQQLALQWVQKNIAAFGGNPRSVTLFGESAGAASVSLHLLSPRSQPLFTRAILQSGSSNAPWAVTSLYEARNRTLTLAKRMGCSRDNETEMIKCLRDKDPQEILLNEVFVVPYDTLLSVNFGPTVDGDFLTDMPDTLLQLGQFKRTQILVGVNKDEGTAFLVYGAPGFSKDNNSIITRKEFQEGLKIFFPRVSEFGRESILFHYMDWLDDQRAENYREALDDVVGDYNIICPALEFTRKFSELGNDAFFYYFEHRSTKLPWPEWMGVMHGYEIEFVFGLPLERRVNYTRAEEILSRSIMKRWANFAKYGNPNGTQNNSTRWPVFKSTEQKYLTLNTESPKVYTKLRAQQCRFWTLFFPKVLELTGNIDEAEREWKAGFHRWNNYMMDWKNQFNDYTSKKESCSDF
# Experimental: as §1, §2
SMILES,"Thioflavin T fluorescence intensity ([1]; 96 h, Aβ alone 4.67 ± 0.28 AU)","Thioflavin T fluorescence intensity ([1]; 9 days, Aβ alone 6.06 ± 0.47 AU)",pIC50 [2],inhibition at 50 µg/mL ([2]; read-out: maximum AChE inhibitory activity),pIC50 [3],"inhibition at up to 50 µg/mL ([3]; 10–50 μg/ml tested, at 50 μg/ml, read-out: maximum BuChE inhibitory activity)"
COc1ccc2c3c1O[C@H]1C[C@@H](O)C=C[C@@]31CCN(C)C2 [Galantamine],3.62 ± 0.55 AU,2.86 ± 0.94 AU,,,,
"CC(C)=CCC[C@](C)(O)[C@@H]1CC=C(C)CC1 [alpha-bisabolol, Alpha-bisabolol]",,,> 4.35,87%,> 4.35,66%

# Source: publication PMC4633220, “Antiaggregation Potential of Padina gymnospora against the Toxic Alzheimer’s Beta-Amyloid Peptide 25–35 and Cholinesterase Inhibitory Property of Its Bioactive Compounds” (PLoS ONE, 2015)
